{"source": "patent EP2826473A1", "about": "“NOVEL USE OF PATCHOULOL” (Chengdu Huasun Group Inc., Ltd., priority 2012, dated 2013)", "key": {"[1]": {"tested_on": "influenza virus type A (H2N2)", "conditions": "in vitro; cited from earlier work"}, "[2]": {"tested_on": "Staphylococcus aureus MSSA", "test": "in vitro bacteriostatic activity, agar dilution MIC", "format": "cell-based", "conditions": "Staphylococcus aureus, MSSA, read-out: MIC"}, "[3]": {"tested_on": "learning and memory ability", "conditions": "mice, scopolamine, intragastric 80 and 40 mg/kg; cited from earlier work"}, "[4]": {"tested_on": "Enterococcus faecalis", "test": "in vitro bacteriostatic activity, agar dilution MIC", "format": "cell-based", "conditions": "Enterococcus faecalis, read-out: MIC"}, "[5]": {"tested_on": "Staphylococcus aureus", "test": "in vitro bacteriostatic activity, agar dilution MIC, quality control strains", "format": "cell-based", "conditions": "read-out: MIC"}, "[6]": {"tested_on": "vomit response", "conditions": "chickens, 50-70 mg/kg; cited from earlier work"}, "[7]": {"tested_on": "Acinetobacter lwoffii", "test": "in vitro bacteriostatic activity, agar dilution MIC", "format": "cell-based"}, "[8]": {"conditions": "cited from earlier work"}, "[9]": {"tested_on": "humoral immunity and mononuclear phagocyte functions", "conditions": "intragastric 40 and 80 mg/(kg·d) for successive 7 days; cited from earlier work"}, "[10]": {"tested_on": "Staphylococcus aureus ATCC 25923", "test": "prevention of bacterial infection, colony count on patchoulol-coated tubes", "conditions": "cultured 7 days at 37°C"}, "[11]": {"tested_on": "Streptococcus agalactiae", "test": "in vitro bacteriostatic activity, agar dilution MIC", "format": "cell-based", "conditions": "Streptococcus agalactiae 12-1"}, "[12]": {"tested_on": "Methicillin-resistant Staphylococcus aureus ATCC 43300", "test": "in vivo protection of model mice infected with methicillin-resistant Staphylococcus aureus", "design": "species or system KM mice", "conditions": "intraperitoneal injection once a day, within 14 days; for Survival number: 10 animals", "method": "Tested strains' virulence assay: Methicillin-resistant Staphylococcus aureus was cultured in incubator at 37°C to reach exponential phase of growth, and then diluted with normal saline to obtain different gradient concentrations of bacterial liquid. Different concentrations of bacterial liquid were taken and mixed with equivalent 10% gastric mucin. Bacterial liquid was administrated to mice at 0.5 ml/20 g by intraperitoneal injection, and 5% gastric mucin was used as control. Under a premise of no control mice death, the death rate of mice within 14 days was recorded, and the minimum bacterial volumes leading to death of whole mice were measured, i.e. the minimum lethal dose (MLD) of bacterial liquid.\nPretesting of effective dose in vivo: Infection model mice infected by Methicillin-resistant Staphylococcus aureus were randomly divided into a few of groups (four mice per group), and a graded dose of each bacterial liquid was separately administrated to mice in each test group at one time per day. Moreover, administration of test drug was done one day ahead of schedule, and toxic substances were not eliminated until 0.5 h after administration on the second day. The death status of mice within 14 days was observed, to determine the dosage used in the formal experiment.\nKM mice (grade SPF), half male and half female, weighing 18-22 g were randomly divided into […] groups with ten mice for each group, i.e. the group receiving vancomycin hydrochloride for injection; the groups receiving high, medium, and low doses of patchoulol; blank group; model group; and control group receiving gastric mucin. All of the mice were administrated by intraperitoneal injection once a day. The mice were administrated one day in advance and then attacked after 0.5h of administration on the second day, i.e. intraperitoneally injected with methicillin-resistant Staphylococcus aureus liquid containing 5% gastric mucin. Amongst, mice in the model group were given normal saline instead of test drug; mice in the blank group were not given drugs and attacked; mice in the gastric mucin control group were not given test drug, but only injected with 5% gastric mucin without bacteria.\nThe death status of mice within 14 days after injection of bacteria was observed, and its survival rate was recorded."}, "[13]": {"tested_on": "Streptococcus uberis", "test": "in vitro bacteriostatic activity, agar dilution MIC", "format": "cell-based", "conditions": "Streptococcus uberis 12-1"}, "[14]": {"tested_on": "xylene-induced ear edema", "conditions": "mice, dose-dependent; cited from earlier work"}, "[15]": {"tested_on": "Staphylococcus epidermidis MRSE", "test": "in vitro bacteriostatic activity, agar dilution MIC", "format": "cell-based"}, "[16]": {"tested_on": "Klebsiella pneumonia E^+", "test": "in vitro bacteriostatic activity, agar dilution MIC", "format": "cell-based", "conditions": "Klebsiella pneumoniae"}, "[17]": {"tested_on": "influenza virus H2N2", "conditions": "intragastric administration of 5 mg/(kg·d); cited from earlier work"}}, "note": "Like-named read-outs stand apart in the source and are kept apart here.", "data": [{"smiles": "C[C@H]1CC[C@@]2(O)C(C)(C)[C@@H]3CC[C@@]2(C)[C@H]1C3", "note": "(stereo in doubt) [PC, (1R,4S,4aS,6R,8aS)-octahydro-4,8a,9,9-tetramethyl-1,6-methanonaphthalen-1(2H)-ol]", "values": [{"measurement": "IC50", "setting": "[1]", "result": "4.03 ± 0.23", "unit": "µM"}, {"measurement": "MIC", "setting": "[2]; Staphylococcus aureus MSSA 10-38", "result": 1.5, "unit": "µg/mL"}, {"measurement": "MIC", "setting": "[2]; Staphylococcus aureus MSSA 10-40", "result": 1.5, "unit": "µg/mL"}, {"measurement": "MIC", "setting": "[2]; Staphylococcus aureus MSSA 10-41", "result": 1.5, "unit": "µg/mL"}, {"measurement": "MIC", "setting": "[2]; Staphylococcus aureus MSSA 12-11", "result": 128, "unit": "µg/mL"}, {"measurement": "MIC", "setting": "[2]; Staphylococcus aureus MSSA 12-13", "result": 128, "unit": "µg/mL"}, {"measurement": "MIC", "setting": "[2]; Staphylococcus aureus MSSA 12-14", "result": 64, "unit": "µg/mL"}, {"measurement": "MIC", "setting": "[2]; Staphylococcus aureus MSSA 12-15", "result": 128, "unit": "µg/mL"}, {"measurement": "MIC", "setting": "[2]; Staphylococcus aureus MSSA 12-16", "result": 64, "unit": "µg/mL"}, {"measurement": "MIC", "setting": "[2]; Staphylococcus aureus MSSA 12-17", "result": 64, "unit": "µg/mL"}, {"measurement": "MIC", "setting": "[2]; Staphylococcus aureus MSSA 12-18", "result": 128, "unit": "µg/mL"}, {"measurement": "MIC", "setting": "[2]; Staphylococcus aureus MSSA 12-19", "result": 128, "unit": "µg/mL"}, {"measurement": "MIC", "setting": "[2]; Staphylococcus aureus MSSA 12-20", "result": 64, "unit": "µg/mL"}, {"measurement": "MIC", "setting": "[2]; Staphylococcus aureus MSSA 12-21", "result": 64, "unit": "µg/mL"}, {"measurement": "learning and memory ability", "setting": "[3]", "result": "enhance learning and memory ability"}, {"measurement": "MIC", "setting": "[4]; ATCC29212, Enterococcus faecalis ATCC 29212", "result": 128, "unit": "µg/mL"}, {"measurement": "MIC", "setting": "[4]; ATCC51299, Enterococcus faecalis (high endurance) ATCC 51299", "result": 128, "unit": "µg/mL"}, {"measurement": "MIC", "setting": "[4]; Enterococcus faecalis 12-11", "result": "> 128", "unit": "µg/mL"}, {"measurement": "MIC", "setting": "[4]; Enterococcus faecalis 12-12", "result": 32, "unit": "µg/mL"}, {"measurement": "MIC", "setting": "[4]; Enterococcus faecalis 12-13", "result": 128, "unit": "µg/mL"}, {"measurement": "MIC", "setting": "[4]; Enterococcus faecalis 12-14", "result": 64, "unit": "µg/mL"}, {"measurement": "MIC", "setting": "[4]; Enterococcus faecalis 12-17", "result": 128, "unit": "µg/mL"}, {"measurement": "MIC", "setting": "[4]; Enterococcus faecalis 12-18", "result": 128, "unit": "µg/mL"}, {"measurement": "MIC", "setting": "[4]; Enterococcus faecalis 12-19", "result": 128, "unit": "µg/mL"}, {"measurement": "MIC", "setting": "[4]; Enterococcus faecalis 12-20", "result": 128, "unit": "µg/mL"}, {"measurement": "MIC", "setting": "[4]; Enterococcus faecalis 12-21", "result": 64, "unit": "µg/mL"}, {"measurement": "MIC", "setting": "[4]; Enterococcus faecalis 12-22", "result": 64, "unit": "µg/mL"}, {"measurement": "MIC", "setting": "[5]; ATCC25923, Staphylococcus aureus ATCC 25923", "result": 1.5, "unit": "µg/mL"}, {"measurement": "MIC", "setting": "[5]; ATCC29213, Staphylococcus aureus ATCC 29213", "result": 64, "unit": "µg/mL"}, {"measurement": "vomit response induced by CuSO4", "setting": "[6]", "result": "obviously inhibit"}, {"measurement": "MIC", "setting": "[7]; Acinetobacter lwoffii 12-1, read-out: MIC", "result": 50, "unit": "µg/mL"}, {"measurement": "MIC", "setting": "[7]; Acinetobacter lwoffii 12-2", "result": 50, "unit": "µg/mL"}, {"measurement": "solubility", "setting": "[8]; in petroleum ether, ethanol and other commonly used organic solvents", "result": "freely soluble"}, {"measurement": "solubility", "setting": "[8]; in water", "result": "insoluble"}, {"measurement": "thymus gland index, spleen index, sanguinin content, and clearance index", "setting": "[9]", "result": "effectively improve"}, {"measurement": "bacterial colony numbers", "setting": "[10]; 400, 200, 100 and 50 µg/ml, compared with 0 µg/ml", "result": "decrease"}, {"measurement": "bacterial colony numbers", "setting": "[10]; patchoulol on intraductal membranes more than or equal to 600 µg/ml", "result": 0}, {"measurement": "MIC", "setting": "[11]", "result": 50, "unit": "µg/mL"}, {"measurement": "Survival number", "setting": "[12]; High dose 200 mg/kg", "result": 10}, {"measurement": "Survial rate (%)", "setting": "[12]; High dose 200 mg/kg", "result": 100, "unit": "%"}, {"measurement": "Survival number", "setting": "[12]; Low dose 50 mg/kg", "result": 8}, {"measurement": "Survial rate (%)", "setting": "[12]; Low dose 50 mg/kg", "result": 80, "unit": "%"}, {"measurement": "Survival number", "setting": "[12]; Medium dose 100 mg/kg", "result": 10}, {"measurement": "Survial rate (%)", "setting": "[12]; Medium dose 100 mg/kg", "result": 100, "unit": "%"}, {"measurement": "MIC", "setting": "[13]", "result": 25, "unit": "µg/mL"}, {"measurement": "xylene-induced ear edema", "setting": "[14]", "result": "effectively inhibit"}, {"measurement": "MIC", "setting": "[15]; Staphylococcus epidermidis MRSE 10-40, read-out: MIC", "result": 1.5, "unit": "µg/mL"}, {"measurement": "MIC", "setting": "[15]; Staphylococcus epidermidis MRSE 10-44, read-out: MIC", "result": 1.5, "unit": "µg/mL"}, {"measurement": "MIC", "setting": "[15]; Staphylococcus epidermidis MRSE 12-11, read-out: MIC", "result": 128, "unit": "µg/mL"}, {"measurement": "MIC", "setting": "[15]; Staphylococcus epidermidis MRSE 12-12, read-out: MIC", "result": 32, "unit": "µg/mL"}, {"measurement": "MIC", "setting": "[15]; Staphylococcus epidermidis MRSE 12-15, read-out: MIC", "result": 32, "unit": "µg/mL"}, {"measurement": "MIC", "setting": "[15]; Staphylococcus epidermidis MRSE 12-16, read-out: MIC", "result": 32, "unit": "µg/mL"}, {"measurement": "MIC", "setting": "[15]; Staphylococcus epidermidis MRSE 12-17, read-out: MIC", "result": 32, "unit": "µg/mL"}, {"measurement": "MIC", "setting": "[15]; Staphylococcus epidermidis MRSE 12-18, read-out: MIC", "result": 32, "unit": "µg/mL"}, {"measurement": "MIC", "setting": "[15]; Staphylococcus epidermidis MRSE 12-19, read-out: MIC", "result": 32, "unit": "µg/mL"}, {"measurement": "MIC", "setting": "[15]; Staphylococcus epidermidis MRSE 12-20, read-out: MIC", "result": 128, "unit": "µg/mL"}, {"measurement": "MIC", "setting": "[15]; Staphylococcus epidermidis MRSE 12-21, read-out: MIC", "result": 128, "unit": "µg/mL"}, {"measurement": "MIC", "setting": "[15]; Staphylococcus epidermidis MRSE 12-22, read-out: MIC", "result": 32, "unit": "µg/mL"}, {"measurement": "MIC", "setting": "[16]; Klebsiella pneumonia E^+ 10-2", "result": "> 768", "unit": "µg/mL"}, {"measurement": "MIC", "setting": "[16]; Klebsiella pneumonia E^+ 10-6", "result": "> 768", "unit": "µg/mL"}, {"measurement": "protective effect on infected model mice", "setting": "[17]", "result": "obvious protective effect"}]}]}
